# Assay results from ChEMBL document CHEMBL5390320, “Discovery of a Novel Benzodiazepine Series of Cbl-b Inhibitors for the Enhancement of Antitumor Immunity” (ACS Med Chem Lett, 2023).
# What was measured:
# [1] = target: T1, E3 ubiquitin-protein ligase CBL-B (Homo sapiens, UniProt Q13191); test: Displacement of FAM-labeled probe from recombinant biotinylated Cbl-b (unknown origin) expressed in Escherichia coli BL21(DE3) Tuner cells by TR-FRET assay
# [2] = Lipophilicity, log D of the compound in octanol and sodium phosphate buffer at pH 7.4 incubated for 3 hrs under shaking condition by shake flask method based LC-MS/MS analysis; type: physicochemical
# [3] = target: T2, Cholecystokinin receptor type A (Homo sapiens, UniProt P32238); test: Displacement of […] from human CCKA receptor expressed in CHO cell membrane incubated for 60 mins by scintillation counter method; type: toxicity, cell membranes
# T2 sequence (P32238 whole entry): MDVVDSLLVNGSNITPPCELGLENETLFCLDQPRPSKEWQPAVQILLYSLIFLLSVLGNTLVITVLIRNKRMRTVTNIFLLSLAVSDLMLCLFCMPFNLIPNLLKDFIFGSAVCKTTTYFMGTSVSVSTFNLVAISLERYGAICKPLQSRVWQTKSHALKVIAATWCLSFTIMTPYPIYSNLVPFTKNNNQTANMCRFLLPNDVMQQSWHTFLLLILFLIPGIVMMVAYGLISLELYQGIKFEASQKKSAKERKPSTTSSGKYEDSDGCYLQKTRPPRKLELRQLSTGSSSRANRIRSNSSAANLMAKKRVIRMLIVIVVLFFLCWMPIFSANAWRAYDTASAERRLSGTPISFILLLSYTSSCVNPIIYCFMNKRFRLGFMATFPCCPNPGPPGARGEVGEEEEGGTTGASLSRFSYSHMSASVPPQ
# [4] = target: T1, E3 ubiquitin-protein ligase CBL-B; test: Inhibition of Cbl-b in cryo-preserved human CD3-positive T cells assessed as increase in IL-2 production preincubated for 1 hr followed by alpha-CD3 coated stimulation for 24 hrs by flow cytometry method; type: cell-based, CD3-positive T cell
# [5] = target: T1, E3 ubiquitin-protein ligase CBL-B; test: Binding affinity to avidin-biotinylated Cbl-b at (36 to 427 residues) (unknown origin) assessed as dissociation constant by SPR analysis
# [6] = target: T1, E3 ubiquitin-protein ligase CBL-B; test: Inhibition of recombinant Cbl-b (unknown origin) mediated ZAP70 ubiquitination incubated for 60 mins by TR-FRET assay
# [7] = target: T1, E3 ubiquitin-protein ligase CBL-B; test: Inhibition of recombinant Cbl-b (unknown origin) ubiquitination incubated for 60 mins in presence of ATP by TR-FRET assay
# T1 sequence (Q13191 whole entry): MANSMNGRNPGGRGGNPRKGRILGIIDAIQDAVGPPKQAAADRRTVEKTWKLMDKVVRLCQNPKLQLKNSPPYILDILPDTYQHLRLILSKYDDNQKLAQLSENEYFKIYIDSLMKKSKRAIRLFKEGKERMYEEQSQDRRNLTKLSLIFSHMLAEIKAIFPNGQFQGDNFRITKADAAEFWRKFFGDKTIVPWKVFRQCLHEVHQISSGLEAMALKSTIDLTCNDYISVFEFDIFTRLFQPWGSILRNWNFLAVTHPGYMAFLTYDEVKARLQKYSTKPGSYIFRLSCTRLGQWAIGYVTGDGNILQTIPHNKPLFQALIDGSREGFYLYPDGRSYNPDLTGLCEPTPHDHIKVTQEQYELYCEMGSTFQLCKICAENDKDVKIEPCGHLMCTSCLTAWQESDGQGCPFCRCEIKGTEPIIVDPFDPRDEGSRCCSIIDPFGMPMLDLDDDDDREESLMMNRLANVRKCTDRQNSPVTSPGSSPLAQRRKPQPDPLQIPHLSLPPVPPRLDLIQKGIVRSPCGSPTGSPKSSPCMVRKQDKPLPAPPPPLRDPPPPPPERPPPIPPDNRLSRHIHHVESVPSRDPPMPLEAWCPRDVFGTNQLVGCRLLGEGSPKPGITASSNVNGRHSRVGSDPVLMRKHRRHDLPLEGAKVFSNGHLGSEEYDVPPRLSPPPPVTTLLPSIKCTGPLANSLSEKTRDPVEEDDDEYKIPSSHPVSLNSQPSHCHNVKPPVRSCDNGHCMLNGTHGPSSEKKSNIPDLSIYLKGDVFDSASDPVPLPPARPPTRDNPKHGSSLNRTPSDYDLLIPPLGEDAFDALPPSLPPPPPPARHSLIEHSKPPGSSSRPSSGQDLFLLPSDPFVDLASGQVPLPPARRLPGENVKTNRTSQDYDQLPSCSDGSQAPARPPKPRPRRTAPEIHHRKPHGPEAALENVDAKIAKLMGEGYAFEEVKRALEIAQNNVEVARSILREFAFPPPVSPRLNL
SMILES,IC50 [1] [nM],logD at 3 h [2],further results
COCCNC(=O)c1ccc2c(c1)NC(=O)[C@@H](NC(=O)c1ccccc1CN1CCO[C@@H](C)C1)N=C2c1ccccc1,13,3.7,Ki [3]: 24300 nM; EC50 [4]: 2610 nM
O=C(N[C@H]1N=C(c2ccccc2)c2ccccc2NC1=O)c1ccccc1CN1CCOCC1,94,3.9,–
C[C@H]1CN(Cc2ccccc2C(=O)N[C@H]2N=C(c3ccccc3)c3ccc(C(=O)N4CCN(C)C(=O)C4)cc3NC2=O)CCO1,13,2.5,Ki [3]: > 100000 nM; EC50 [4]: 1650 nM
C[C@H]1CN(Cc2ccccc2C(=O)N[C@H]2N=C(c3ccccc3)c3ccccc3NC2=O)CCO1,13,4.1,Ki [3]: 3720 nM; EC50 [4]: 14000 nM
C[C@@H]1CN(Cc2ccccc2C(=O)N[C@H]2N=C(c3ccccc3)c3ccccc3NC2=O)CCO1,10,4.1,Ki [3]: 2630 nM; EC50 [4]: > 30000 nM
O=C(N[C@@H]1N=C(c2ccccc2)c2ccccc2NC1=O)c1ccccc1CN1CCOCC1,8000,3.9,–
C[C@H]1CCCN(Cc2cc3c(c(C(F)(F)F)c2)CN(c2cccc([C@]4(c5nncn5C)C[C@@H](C)C4)c2)C3=O)C1,9,–,Kd [5]: 3 nM
C[C@H]1CN(Cc2ccccc2C(=O)N[C@H]2N=C(c3ccccc3)c3ccncc3NC2=O)CCO1,15,3.3,IC50 [6]: 37200 nM; Ki [3]: > 100000 nM; IC50 [7]: 50500 nM; EC50 [4]: 410 nM
C[C@@H]1CN(Cc2ccccc2C(=O)NC2N=C(c3ccccc3)c3ccccc3NC2=O)C[C@H](C)O1 (mixture of isomers),1800,4.3,–
C[C@@H]1CN(Cc2ccccc2C(=O)NC2N=C(c3ccccc3)c3ccccc3NC2=O)CCO1 (mixture of isomers),31,4.1,–
C[C@H]1COCCN1Cc1ccccc1C(=O)NC1N=C(c2ccccc2)c2ccccc2NC1=O (mixture of isomers),1900,4,–
C[C@H]1CN(Cc2ccccc2C(=O)NC2N=C(c3ccccc3)c3ccccc3NC2=O)CCO1 (mixture of isomers),26,4.2,–
C[C@@H]1COCCN1Cc1ccccc1C(=O)NC1N=C(c2ccccc2)c2ccccc2NC1=O (mixture of isomers),4800,3.9,–
O=C(NC1N=C(c2ccccc2)c2ccccc2NC1=O)c1ccccc1CN1CCOCC1 (racemic),210,3.8,Kd [5]: 400 nM
O=C(NC1N=C(c2ccccc2)c2ccccc2NC1=O)c1ccoc1CN1CCOCC1 (racemic),1500,3.1,–
O=C(NC1N=C(c2ccccc2)c2ccccc2NC1=O)c1ccccc1N1CCOCC1 (racemic),> 100000,–,–
O=C(NC1N=C(c2ccc[nH]c2=O)c2ccccc2NC1=O)c1ccccc1CN1CCOCC1 (racemic),20000,1.2,–
O=C(NC1N=C(c2ccccc2)c2ccccc2NC1=O)c1ccccc1CN1CCn2nccc2C1 (racemic),710,3.9,–
O=C(NC1N=C(c2ccccc2)c2ccccc2NC1=O)c1cnccc1CN1CCOCC1 (racemic),1300,2.7,–
O=C(NC1N=C(c2ccccc2)c2ccccc2NC1=O)c1sccc1CN1CCOCC1 (racemic),360,3.3,–
Cn1ncc2c1CN(Cc1ccccc1C(=O)NC1N=C(c3ccccc3)c3ccccc3NC1=O)C2 (racemic),350,3.8,–
O=C(NC1N=C(c2ccccc2)c2ccccc2NC1=O)c1ccccc1CN1CCCCC1 (racemic),> 100000,–,–
CC1(C)CN(Cc2ccccc2C(=O)NC2N=C(c3ccccc3)c3ccccc3NC2=O)CCO1 (racemic),3900,4.3,–
O=C(NC1N=C(c2cc[nH]c(=O)c2)c2ccccc2NC1=O)c1ccccc1CN1CCOCC1 (racemic),11000,1.7,–
O=C(NC1N=C(c2ccncc2)c2ccccc2NC1=O)c1ccccc1CN1CCOCC1 (racemic),2000,2.6,–
O=C(NC1N=C(c2ccccc2)c2ccccc2NC1=O)c1ccccc1CN1CCn2nncc2C1 (racemic),300,2.9,–
